ChEMBL document CHEMBL5724696, “Autophagy assay results for EUbOPEN Chemogenomics Library” (2024)

What was measured:
Format in all cases: functional, Homo sapiens
TERT-RPE1 = assay: (§1) Here: values are normalized to the negative (DMSO; defined as 0% autophagy induction) and positive (250nM Torin1; mTOR inhibitor; defined as maximal inducer of autophagy = 100%) control compounds and represented as % of autophagy induction. […] The impact of autophagy induction on cells is complex and depends on the affected target. As such, the magnitude of a phenotype may not be equally mirrored in the %-value of autophagy induction and vice versa. The dynamics of the induction may indicate the mode of activation: e.g. activation via phosphorylation or a signaling cascade may occur fast, while activation via transcription factors may take considerably longer. […] Of note, treatment concentrations may be sub-optimal for specific compounds, leading to false negative annotations.; conditions: Culturing Media DMEM/F12 (1:1), 1 % Penicillin/Streptomycin, 10% Fetal bovin serum Add-On: No, Screening Media Control DMEM/F12 (1:1), Screening Media Samples DMEM/F12 (1:1)
U2OS [1] = assay: as §1; conditions: Culturing Media DMEM, 1 % Penicillin/Streptomycin, 10% Fetal bovin serum Add-On: No, Screening Media Control DMEM, Screening Media Samples DMEM
U2OS [2] = assay: as §1; conditions: Culturing Media DMEM, 1 % Penicillin/Streptomycin, 10% Fetal bovin serum Add-On: No, Screening Media Control DMEM, Screening Media Samples DMEM; remark: listed apart in the source
[3] = Compound Concentration 0.5 uM, Timepoint 12 hours
[4] = Compound Concentration 0.5 uM, Timepoint 24 hours
[5] = Compound Concentration 0.5 uM, Timepoint 36 hours
[6] = Compound Concentration 0.5 uM, Timepoint 60 hours
[7] = Compound Concentration 2 uM, Timepoint 12 hours
[8] = Compound Concentration 2 uM, Timepoint 24 hours
[9] = Compound Concentration 2 uM, Timepoint 36 hours
[10] = Compound Concentration 2 uM, Timepoint 60 hours
[11] = Compound Concentration 10 uM, Timepoint 12 hours
[12] = Compound Concentration 10 uM, Timepoint 24 hours
[13] = Compound Concentration 10 uM, Timepoint 36 hours
[14] = Compound Concentration 10 uM, Timepoint 60 hours

COC1CCN(c2cccc(-c3cc(NC(C)=O)nc(-n4nc(C)cc4C)n3)n2)CC1
autophagy induction (TERT-RPE1; [3]): -7.33% | autophagy induction (TERT-RPE1; [4]): -8.964% | autophagy induction (TERT-RPE1; [5]): -12.5665% | autophagy induction (TERT-RPE1; [6]): -12.2397% | autophagy induction (TERT-RPE1; [7]): -1.032% | autophagy induction (TERT-RPE1; [8]): 0.9672% | autophagy induction (TERT-RPE1; [9]): 2.277% | autophagy induction (TERT-RPE1; [10]): 7.2174% | autophagy induction (TERT-RPE1; [11]): 3.426% | autophagy induction (TERT-RPE1; [12]): 13.112% | autophagy induction (TERT-RPE1; [13]): 27.8595% | autophagy induction (TERT-RPE1; [14]): 52.8636% | autophagy induction (U2OS [1]; [3]): 2.5303% | autophagy induction (U2OS [1]; [4]): -0.8923% | autophagy induction (U2OS [1]; [5]): -0.9403% | autophagy induction (U2OS [1]; [6]): 0.4833% | autophagy induction (U2OS [1]; [7]): 5.065% | autophagy induction (U2OS [1]; [8]): 2.721% | autophagy induction (U2OS [1]; [9]): -0.07864% | autophagy induction (U2OS [1]; [10]): -0.6053% | autophagy induction (U2OS [1]; [11]): 7.172% | autophagy induction (U2OS [1]; [12]): -0.05151% | autophagy induction (U2OS [1]; [13]): 0.1867% | autophagy induction (U2OS [1]; [14]): -2.376% | autophagy induction (U2OS [2]; [3]): 34.4556% | autophagy induction (U2OS [2]; [4]): 27.7724% | autophagy induction (U2OS [2]; [5]): 24.8838% | autophagy induction (U2OS [2]; [6]): 23.4921% | autophagy induction (U2OS [2]; [7]): -5.934% | autophagy induction (U2OS [2]; [8]): -0.6278% | autophagy induction (U2OS [2]; [9]): -1.762% | autophagy induction (U2OS [2]; [10]): -0.9306% | autophagy induction (U2OS [2]; [11]): -4.754% | autophagy induction (U2OS [2]; [12]): 3.79% | autophagy induction (U2OS [2]; [13]): 9.047% | autophagy induction (U2OS [2]; [14]): 19.3391%

CSc1ccc(C(=O)N[C@@H]2CCCC[C@@H]2NC(=O)CNC(=O)c2cc(C(F)(F)F)ccc2NC(=O)NC(C)C)cc1
autophagy induction (TERT-RPE1; [3]): -7.317% | autophagy induction (TERT-RPE1; [4]): -10.4362% | autophagy induction (TERT-RPE1; [5]): -10.5931% | autophagy induction (TERT-RPE1; [6]): -10.1253% | autophagy induction (TERT-RPE1; [7]): -7.697% | autophagy induction (TERT-RPE1; [8]): -8.893% | autophagy induction (TERT-RPE1; [9]): -11.9452% | autophagy induction (TERT-RPE1; [10]): -15.6367% | autophagy induction (TERT-RPE1; [11]): -4.351% | autophagy induction (TERT-RPE1; [12]): -5.968% | autophagy induction (TERT-RPE1; [13]): -5.344% | autophagy induction (TERT-RPE1; [14]): -2.567% | autophagy induction (U2OS [1]; [3]): -1.519% | autophagy induction (U2OS [1]; [4]): -1.673% | autophagy induction (U2OS [1]; [5]): -0.1292% | autophagy induction (U2OS [1]; [6]): -0.4268% | autophagy induction (U2OS [1]; [7]): 6.41% | autophagy induction (U2OS [1]; [8]): -0.3397% | autophagy induction (U2OS [1]; [9]): 0.2664% | autophagy induction (U2OS [1]; [10]): 0.6149% | autophagy induction (U2OS [1]; [11]): -6.202% | autophagy induction (U2OS [1]; [12]): -3.0141% | autophagy induction (U2OS [1]; [13]): -1.6234% | autophagy induction (U2OS [1]; [14]): -0.3642% | autophagy induction (U2OS [2]; [3]): -3.4763% | autophagy induction (U2OS [2]; [4]): -6.206% | autophagy induction (U2OS [2]; [5]): -3.128% | autophagy induction (U2OS [2]; [6]): -12.7895% | autophagy induction (U2OS [2]; [7]): 8.51% | autophagy induction (U2OS [2]; [8]): 8.515% | autophagy induction (U2OS [2]; [9]): 8.998% | autophagy induction (U2OS [2]; [10]): -1.4223% | autophagy induction (U2OS [2]; [11]): 3.613% | autophagy induction (U2OS [2]; [12]): 5.882% | autophagy induction (U2OS [2]; [13]): 6.117% | autophagy induction (U2OS [2]; [14]): 10.5977%

Cc1nc(C(=O)N2CCC[C@H]2Cc2nnc(-c3ccccc3)o2)c(-c2ccccc2F)s1
autophagy induction (TERT-RPE1; [3]): -3.536% | autophagy induction (TERT-RPE1; [4]): -6.3015% | autophagy induction (TERT-RPE1; [5]): -4.185% | autophagy induction (TERT-RPE1; [6]): -7.252% | autophagy induction (TERT-RPE1; [7]): -4.803% | autophagy induction (TERT-RPE1; [8]): -6.585% | autophagy induction (TERT-RPE1; [9]): -5.999% | autophagy induction (TERT-RPE1; [10]): -9.333% | autophagy induction (TERT-RPE1; [11]): 0.2716% | autophagy induction (TERT-RPE1; [12]): 0.5174% | autophagy induction (TERT-RPE1; [13]): 2.2318% | autophagy induction (TERT-RPE1; [14]): 3.905% | autophagy induction (U2OS [1]; [3]): 4.15% | autophagy induction (U2OS [1]; [4]): -0.2081% | autophagy induction (U2OS [1]; [5]): -2.227% | autophagy induction (U2OS [1]; [6]): -2.102% | autophagy induction (U2OS [1]; [7]): 0.7749% | autophagy induction (U2OS [1]; [8]): -1.115% | autophagy induction (U2OS [1]; [9]): -1.752% | autophagy induction (U2OS [1]; [10]): -2.832% | autophagy induction (U2OS [1]; [11]): 4.1851% | autophagy induction (U2OS [1]; [12]): 1.702% | autophagy induction (U2OS [1]; [13]): -1.044% | autophagy induction (U2OS [1]; [14]): -3.102% | autophagy induction (U2OS [2]; [3]): 13.4134% | autophagy induction (U2OS [2]; [4]): 8.147% | autophagy induction (U2OS [2]; [5]): 0.9843% | autophagy induction (U2OS [2]; [6]): 3.676% | autophagy induction (U2OS [2]; [7]): 5.837% | autophagy induction (U2OS [2]; [8]): 5.052% | autophagy induction (U2OS [2]; [9]): 3.424% | autophagy induction (U2OS [2]; [10]): -6.267% | autophagy induction (U2OS [2]; [11]): 0.7146% | autophagy induction (U2OS [2]; [12]): 3.711% | autophagy induction (U2OS [2]; [13]): -0.07108% | autophagy induction (U2OS [2]; [14]): -6.907%
